Assay results reported in PMC9970836 (Biomolecules & Therapeutics, 2022).

Biological target: 5-HT2AR (Homo sapiens, UniProt P28223)
Assay: 5-HT2AR radioligand binding assay

5-HT2AR, sequence (P28223 whole entry): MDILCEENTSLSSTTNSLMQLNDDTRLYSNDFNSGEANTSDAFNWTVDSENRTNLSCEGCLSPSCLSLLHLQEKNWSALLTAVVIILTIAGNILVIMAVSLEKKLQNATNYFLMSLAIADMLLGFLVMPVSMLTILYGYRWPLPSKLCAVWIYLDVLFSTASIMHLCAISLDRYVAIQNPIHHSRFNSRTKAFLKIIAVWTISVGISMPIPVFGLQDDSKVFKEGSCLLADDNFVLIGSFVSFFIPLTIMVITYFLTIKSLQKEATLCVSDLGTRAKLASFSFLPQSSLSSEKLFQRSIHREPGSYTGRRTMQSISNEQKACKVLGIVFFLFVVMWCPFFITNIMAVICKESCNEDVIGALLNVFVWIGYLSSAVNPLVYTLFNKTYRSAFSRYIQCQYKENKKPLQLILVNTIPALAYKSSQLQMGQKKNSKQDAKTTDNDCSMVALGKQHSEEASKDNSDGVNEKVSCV

Row | SMILES | Ki [nM]
1 | CCCc1cc(OC)c(CCN)cc1OC [Compd 1, 2,5-dimethoxy-4-propyl-benzeneethanamine] | 3.47
2 | COc1cc([N+](=O)[O-])c(OC)cc1CCN [Compd 2, 2,5-Dimethoxy-4-nitrophenethylamine] | 25.2
3 | COc1cc(CCNCc2ccccc2OC)c(OC)cc1C [Compd 6, 2-(2,5-dimethoxy-4-methylphenyl)-N-(2-methoxybenzyl)ethanamine] | 2.88
4 | CCc1cc(OC)c(CCNCc2ccccc2OC)cc1OC [Compd 7, 2-(4-ethyl-2,5-dimethoxyphenyl)-N-(2-methoxybenzyl)ethan-1-amine] | 1.52
5 | COc1cc(CCNCc2ccccc2OC)c(OC)cc1Cl [Compd 8, 2-(4-chloro-2,5-dimethoxyphenyl)-N-(2-methoxybenzyl)ethanamine] | 0.817
6 | COc1cc(CCNCc2ccccc2F)c(OC)cc1Cl [Compd 11, 4-chloro-N-[(2-fluorophenyl)methyl]-2,5-dimethoxy-benzeneethanamine] | 10.8
7 | COc1cc(CCNCc2ccccc2F)c(OC)cc1Br [Compd 12, 4-bromo-N-[(2-fluorophenyl)methyl]-2,5-dimethoxy-benzeneethanamine] | 3.63
8 | CCN(CC)CCc1c[nH]c2cccc(OC(C)=O)c12 [Compd 18, 4-Acetoxy-N,N-diethyltryptamine] | 595
9 | CCCN(CC)CCc1c[nH]c2ccc(OC)cc12 [Compd 20, 5-methoxy -N-ethyl-N-propyl tryptamine] | 122
10 | C=CCN(CC=C)CCc1c[nH]c2ccc(OC)cc12 [Compd 25, N-allyl-N-[2-(5-methoxy-1H-indol-3-yl)ethyl] prop-2-en-1-amine] | 258
